Some results are limits rather than exact numbers.

The test addresses AMPK. Kind of test: AMPK activation, enzyme-linked immunosorbent assay. The test is classed as biochemical. The conditions noted are these: Table 13, compounds of Table 6. An outline of the steps: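 Read-out: ELISA, used to detect compound-driven activation of AMPK.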
In the case of `N#Cc1ccc(CN2CCC(NC(=O)c3cc4cc(C(=O)N5CCN(c6ccc(F)cc6)CC5)ccc4o3)CC2)cc1` [Compound 6-86, N-(1-(4-cyanobenzyl)piperidin-4-yl)-5-(4-(4-fluorophenyl)piperazine-1-carbonyl)benzofuran-2-carboxamide], the EC50 is < 100 nM.
The figure for `CS(=O)(=O)c1ccc(N2CCN(C(=O)c3ccc4oc(C(=O)NC5CCN(Cc6ccc(C#N)cc6)CC5)cc4c3)CC2)cc1` [Compound 6-87, N-(1-(4-cyanobenzyl)piperidin-4-yl)-5-(4-(4-(methylsulfonyl)phenyl)piperazine-1-carbonyl) benzofuran-2-carboxamide] is 100 to 1000 nM; for `N#Cc1ccc(CN2CCC(NC(=O)c3cc4cc(C(=O)NC5CCN(c6ccc(C#N)cc6)CC5)ccc4o3)CC2)cc1` [Compound 6-90, N2-(1-(4-cyanobenzyl)piperidin-4-yl)-N5-(1-(4-cyanophenyl)piperidin-4-yl)benzofuran-2,5-dicarboxamide] it is < 100 nM.
Regarding `N#Cc1ccc(CN2CCC(NC(=O)c3cc4cc(C(=O)NC5CCN(Cc6ccn(-c7ccc(C#N)cc7)n6)CC5)ccc4o3)CC2)cc1` [Compound 6-91, N2-(1-(4-cyanobenzyl)piperidin-4-yl)-N5-(1-((1-(4-cyanophenyl)-1H-pyrazol-3-yl)methyl)piperidin-4-yl)benzofuran-2,5-dicarboxamide], the EC50 lay within 1000 to 10000 nM.
Compound `N#Cc1ccc(CN2CCC(NC(=O)c3cc4cc(C(=O)NC5CCN(Cc6ccc(-n7cccn7)cc6)CC5)ccc4o3)CC2)cc1` [Compound 6-92, N5-(1-(4-(lH-pyrazol-1-yl)benzyl)piperidin-4-yl)-N2-(1-(4-cyanobenzyl)piperidin-4-yl)benzofuran-2,5-dicarboxamide] gave a concentration giving a half-maximal response (EC50) of 100 to 1000 nM.
`N#Cc1ccc(CN2CCC(NC(=O)c3cc4cc(C(=O)NC5CCN(Cc6ccc(OC(F)(F)F)cc6)CC5)ccc4o3)CC2)cc1` [Compound 6-93, N2-(1-(4-cyanobcnzyl)piperidin-4-yl)-N5-(1-(4-(trifluoromethoxy)benzyl)piperidin-4-yl)benzofuran-2,5-dicarboxamide] gave an EC50 of 100 to 1000 nM.
The figure for `COc1ccc(CN2CCC(NC(=O)c3cc4cc(C(=O)N5CCN(Cc6ccc(S(C)(=O)=O)cc6)CC5)ccc4o3)CC2)cc1` [Compound 6-94, N-(1-(4-methoxybenzyl)piperidin-4-yl)-5-(4-(4-(methylsulfonyl)benzyl)piperazine-1-carbonyl) benzofuran-2-carboxamide] is 100 to 1000 nM; for `CS(=O)(=O)c1ccc(CN2CCN(C(=O)c3ccc4oc(C(=O)NC5CCN(Cc6ccc(OC(F)(F)F)cc6)CC5)cc4c3)CC2)cc1` [Compound 6-95, 5-(4-(4-(methylsulfonyl)benzyl)piperazine-1-carbonyl)-N-(1-(4-(trifluoromethoxy)benzyl)piperidin-4-yl)benzofuran-2-carboxamide] it is 100 to 1000 nM.
The result for `COc1ccc(CN2CCC(NC(=O)c3cc4cc(C(=O)N5CCN(Cc6ccc(-n7cccn7)cc6)CC5)ccc4o3)CC2)cc1` [Compound 6-96, 5-(4-(4-(1H-pyrazol-1-yl)benzyl)piperazine-1-carbonyl)-N-(1-(4-methoxybenzyl)piperidin-4-yl)benzofuran-2-carboxamide] reads < 100 nM.
The figure for `O=C(NC1CCN(Cc2ccc(OC(F)(F)F)cc2)CC1)c1cc2cc(C(=O)N3CCN(Cc4ccc(-n5cccn5)cc4)CC3)ccc2o1` [Compound 6-97, 5-(4-(4-(1H-pyrazol-1-yl)benzyl)piperazine-1-carbonyl)-N-(1-(4-(trifluoromcthoxy)benzyl)piperidin-4-yl)benzofuran-2-carboxamide] is < 100 nM.
As for `COc1cc(CN2CCC(NC(=O)c3cc4cc(C(=O)N5CCN(Cc6ccc(S(C)(=O)=O)cc6)CC5)ccc4o3)CC2)ccc1F` [Compound 6-98, N-(1-(4-fluoro-3-methoxybenzyl)piperidin-4-yl)-5-(4-(4-(methylsulfonyl)benzyl)piperazine-1-carbonyl) benzofiiran-2-carboxamide], the EC50 fell in the range of 100 to 1000 nM.
The figure for `COc1cccc(CN2CCC(NC(=O)c3cc4cc(C(=O)N5CCN(Cc6ccc(S(C)(=O)=O)cc6)CC5)ccc4o3)CC2)c1` [Compound 6-99, N-(1-(3-methoxybenzyl)piperidin-4-yl)-5-(4-(4-(methylsulfonyl)benzyl)piperazine-1-carbonyl) benzofuran-2-carboxamide] is 1000 to 10000 nM; for `CS(=O)(=O)c1ccc(CN2CCN(C(=O)c3ccc4oc(C(=O)NC5CCN(Cc6ccc(OC(F)F)cc6)CC5)cc4c3)CC2)cc1` [Compound 6-101, N-(1-(4-(difluoromethoxy)benzyl)piperidin-4-yl)-5-(4-(4-(methylsulfonyl)benzyl)piperazine-1-carbonyl) benzofuran-2-carboxamide] it is 100 to 1000 nM.
Take `CS(=O)(=O)c1ccc(CN2CCN(C(=O)c3ccc4oc(C(=O)NC5CCN(Cc6ccc(C#N)cc6)CC5)cc4c3)CC2)cc1F` [Compound 6-102]: the EC50 is < 100 nM.
The figure for `Cc1cc(CN2CCN(C(=O)c3ccc4oc(C(=O)NC5CCN(Cc6ccc(C#N)cc6)CC5)cc4c3)CC2)ccc1S(C)(=O)=O` [Compound 6-103, N-(1-(4-cyanobenzyl)piperidin-4-yl)-5-(4-(3-methyl-4-(methylsulfonyl)benzyl)piperazine-1-carbonyl) benzofuran-2-carboxamide] is < 100 nM.
The figure for `N#Cc1ccc(CN2CCC(NC(=O)c3cc4cc(C(=O)N5CCN(Cc6ccc(S(=O)(=O)C7CC7)cc6)CC5)ccc4o3)CC2)cc1` [Compound 6-104, N-(1-(4-cyanobenzyl)piperidin-4-yl)-5-(4-(4-(cyclopropylsulfonyl)benzyI)piperazine-1-carbonyl) benzofuran-2-carboxamide] is < 100 nM.
The figure for `CS(=O)(=O)c1ccc(CN2CCN(C(=O)c3ccc4oc(C(=O)NC5CCN(Cc6ccc(C#N)cc6)CC5)cc4c3)CC2)cc1C(F)(F)F` [Compound 6-105, N-(1-(4-cyanobenzyl)piperidin-4-yl)-5-(4-(4-(methylsulfonyl)-3-(trifluoromethyl)benzyl)piperazine-1-carbonyl) benzofuran-2-carboxamide] is < 100 nM; for `COc1ccc(N2CCN(C(=O)c3ccc4oc(C(=O)NC5CCN(Cc6ccc(C#N)cc6)CC5)cc4c3)CC2)cc1` [Compound 6-106, N-(1-(4-cyanobenzyl)piperidin-4-yl)-5-(4-(4-methoxyphenyl)piperazine-1-carbonyl)benzofuran-2-carboxamide] it is < 100 nM; for `N#Cc1ccc(CN2CCC(NC(=O)c3cc4cc(C(=O)N5CCN(c6ccc(C#N)cc6)CC5)ccc4o3)CC2)cc1` [Compound 6-107, N-(1-(4-cyanobenzyl)piperidin-4-yl)-5-(4-(4-cyanophenyl)piperazine-1-carbonyl)benzofuran-2-carboxamide] it is < 100 nM.
`CC(C)S(=O)(=O)c1ccc(N2CCN(C(=O)c3ccc4oc(C(=O)NC5CCN(Cc6ccc(C#N)cc6)CC5)cc4c3)CC2)cc1` [Compound 6-108, N-(1-(4-cyanobenzyl)piperidin-4-yl)-5-(4-(4-(isopropylsulfonyl)phenyl)piperazine-1-carbonyl) benzofuran-2-carboxamide]: the EC50 is < 100 nM.
The result for `N#Cc1ccc(CN2CCC(NC(=O)c3cc4cc(C(=O)N5CCN(c6ccc(C(=O)C7CC7)cc6)CC5)ccc4o3)CC2)cc1` [Compound 6-109, N-(1-(4-cyanobenzyl)piperidin-4-yl)-5-(4-(4-(cyclopropanecarbonyl)phenyl)piperazine-1-carbonyl)benzofuran-2-carboxamide] reads < 100 nM; that for `CN(C)C(=O)c1ccc(N2CCN(C(=O)c3ccc4oc(C(=O)NC5CCN(Cc6ccc(C#N)cc6)CC5)cc4c3)CC2)cc1` [Compound 6-110, N-(1-(4-cyanobenzyl)piperidin-4-yl)-5-(4-(4-(dimethylcarbamoyl)phenyl)piperazine-1-carbonyl) benzofuran-2-carboxamide], 100 to 1000 nM; that for `CS(=O)(=O)c1ccc(CN2CCN(C(=O)c3ccc4oc(C(=O)NC5CCN(Cc6ccc(C#N)cc6)CC5)cc4c3)CC2)cc1OC(F)(F)F` [Compound 6-111, N-(1-(4-cyanobenzyl)piperidin-4-yl)-5-(4-(4-(methylsulfonyl)-3-(trifluoromethoxy)benzyl)piperazine-1-carbonyl) benzofuran-2-carboxamide], 100 to 1000 nM.
The result for `CS(=O)(=O)c1ccc(CN2CCN(C(=O)c3ccc4oc(C(=O)NC5CCN(Cc6ccc(C#N)cc6)CC5)cc4c3)CC2)cc1Cl` [Compound 6-112, 5-(4-(3-chloro-4-(methylsulfonyl)benzyl)piperazine-1-carbonyl)-N-(1-(4-cyanobenzyl)piperidin-4-yl)benzofuran-2-carboxamide] reads < 100 nM; that for `CS(=O)(=O)c1ccc(O[C@H]2CCN(C(=O)c3ccc4oc(C(=O)NC5CCN(Cc6ccc(C#N)cc6)CC5)cc4c3)C[C@@H]2F)cc1` [Compound 6-113, N-(1-(4-cyanobenzyl)piperidin-4-yl)-5-((3,4-trans)-3-fluoro-4-(4-(methylsulfonyl)phenoxy)piperidine-1-carbonyl) benzofuran-2-carboxamide], < 100 nM.
As to `COc1ccc(CN2CCC(NC(=O)c3cc4cc(C(=O)N5CC[C@H](Oc6ccc(S(C)(=O)=O)cc6)[C@@H](F)C5)ccc4o3)CC2)cc1` [Compound 6-114, 5-((3,4-trans)-3-fluoro-4-(4-(methylsulfonyl)phenoxy)piperidine-1-carbonyl)-N-(1-(4-methoxybenzyl)piperidin-4-yl) benzofuran-2-carboxamide], the EC50 is < 100 nM.
The result for `CS(=O)(=O)c1ccc(O[C@H]2CCN(C(=O)c3ccc4oc(C(=O)NC5CCN(Cc6ccc(OC(F)(F)F)cc6)CC5)cc4c3)C[C@@H]2F)cc1` [Compound 6-115, 5-((3,4-trans)-3-fluoro-4-(4-(methylsulfonyl)phenoxy)piperidine-1-carbonyl)-N-(1-(4-(trifluoromethoxy)benzyl)piperidin-4-yl)benzofuran-2-carboxamide] reads < 100 nM; that for `N#Cc1ccc(CN2CCC(NC(=O)c3cc4cc(C(=O)N5CCN(c6ccc(C(F)(F)F)cc6)CC5)ccc4o3)CC2)cc1` [Compound 6-116, N-(1-(4-cyanobenzyl)piperidin-4-yl)-5-(4-(4-(trifluoromethyl)phenyl)piperazine-1-carbonyl) benzofuran-2-carboxamide], < 100 nM.

Usually EC50 stands for the concentration giving half of the maximal effect. Higher therefore signals weaker potency.

(Values after patent publication US9409884B2 (Rigel Pharmaceuticals, Inc., priority 2012, dated 2016).)
